Structure (SMILES): O=C1NC(=O)c2cc([N+](=O)[O-])ccc21
- solubility (mole fraction) (in 1,4-dioxane, 283.15 K): 0.0228
- solubility (mole fraction) (in 1,4-dioxane, 285.65 K): 0.0238
- solubility (mole fraction) (in 1,4-dioxane, 288.15 K): 0.0249
- solubility (mole fraction) (in 1,4-dioxane, 293.15 K): 0.0271
- solubility (mole fraction) (in 1,4-dioxane, 295.65 K): 0.0282
- solubility (mole fraction) (in 1,4-dioxane, 298.15 K): 0.0295
- solubility (mole fraction) (in 1,4-dioxane, 303.15 K): 0.0318
- solubility (mole fraction) (in 1,4-dioxane, 305.65 K): 0.0331
- solubility (mole fraction) (in 1,4-dioxane, 308.15 K): 0.0345
- solubility (mole fraction) (in 1,4-dioxane, 313.15 K): 0.0371
- solubility (mole fraction) (in 1,4-dioxane, 315.65 K): 0.0384
- solubility (mole fraction) (in 1,4-dioxane, 318.15 K): 0.0399
- solubility (mole fraction) (in 1,4-dioxane, 323.15 K): 0.0425
- solubility (mole fraction) (in 2-butanone, 273.15 K): 0.0161
- solubility (mole fraction) (in 2-butanone, 275.65 K): 0.0169
- solubility (mole fraction) (in 2-butanone, 278.15 K): 0.0177
- solubility (mole fraction) (in 2-butanone, 283.15 K): 0.0195
- solubility (mole fraction) (in 2-butanone, 285.65 K): 0.0205
- solubility (mole fraction) (in 2-butanone, 288.15 K): 0.0215
- solubility (mole fraction) (in 2-butanone, 293.15 K): 0.0234
- solubility (mole fraction) (in 2-butanone, 295.65 K): 0.0244
- solubility (mole fraction) (in 2-butanone, 298.15 K): 0.0256
- solubility (mole fraction) (in 2-butanone, 303.15 K): 0.0279
- solubility (mole fraction) (in 2-butanone, 305.65 K): 0.029
- solubility (mole fraction) (in 2-butanone, 308.15 K): 0.0302
- solubility (mole fraction) (in 2-butanone, 313.15 K): 0.0327
- solubility (mole fraction) (in 2-butanone, 315.65 K): 0.0339
- solubility (mole fraction) (in 2-butanone, 318.15 K): 0.0353
- solubility (mole fraction) (in 2-butanone, 323.15 K): 0.038
- solubility (mole fraction) (in DMF, 273.15 K): 0.0357
- solubility (mole fraction) (in DMF, 275.65 K): 0.039
- solubility (mole fraction) (in DMF, 278.15 K): 0.0425
- solubility (mole fraction) (in DMF, 283.15 K): 0.0497
- solubility (mole fraction) (in DMF, 285.65 K): 0.0535
- solubility (mole fraction) (in DMF, 288.15 K): 0.0586
- solubility (mole fraction) (in DMF, 293.15 K): 0.0682
- solubility (mole fraction) (in DMF, 295.65 K): 0.0732
- solubility (mole fraction) (in DMF, 298.15 K): 0.0789
- solubility (mole fraction) (in DMF, 303.15 K): 0.0912
- solubility (mole fraction) (in DMF, 305.65 K): 0.0976
- solubility (mole fraction) (in DMF, 308.15 K): 0.104
- solubility (mole fraction) (in DMF, 313.15 K): 0.12
- solubility (mole fraction) (in DMF, 315.65 K): 0.128
- solubility (mole fraction) (in DMF, 318.15 K): 0.137
- solubility (mole fraction) (in DMF, 323.15 K): 0.155
- solubility (mole fraction) (in acetone, 273.15 K): 0.0175
- solubility (mole fraction) (in acetone, 275.65 K): 0.0185
- solubility (mole fraction) (in acetone, 278.15 K): 0.0193
- solubility (mole fraction) (in acetone, 283.15 K): 0.0211
- solubility (mole fraction) (in acetone, 285.65 K): 0.022
- solubility (mole fraction) (in acetone, 288.15 K): 0.023
- solubility (mole fraction) (in acetone, 293.15 K): 0.025
- solubility (mole fraction) (in acetone, 295.65 K): 0.0261
- solubility (mole fraction) (in acetone, 298.15 K): 0.0271
- solubility (mole fraction) (in acetone, 303.15 K): 0.0293
- solubility (mole fraction) (in acetone, 305.65 K): 0.0305
- solubility (mole fraction) (in acetone, 308.15 K): 0.0317
- solubility (mole fraction) (in acetone, 313.15 K): 0.034
- solubility (mole fraction) (in acetone, 315.65 K): 0.0353
- solubility (mole fraction) (in acetone, 318.15 K): 0.0366
- solubility (mole fraction) (in acetone, 323.15 K): 0.0392
- solubility (mole fraction) (in acetonitrile, 273.15 K): 0.00359
- solubility (mole fraction) (in acetonitrile, 275.65 K): 0.00382
- solubility (mole fraction) (in acetonitrile, 278.15 K): 0.00403
- solubility (mole fraction) (in acetonitrile, 283.15 K): 0.00449
- solubility (mole fraction) (in acetonitrile, 285.65 K): 0.00474
- solubility (mole fraction) (in acetonitrile, 288.15 K): 0.00503
- solubility (mole fraction) (in acetonitrile, 293.15 K): 0.00555
- solubility (mole fraction) (in acetonitrile, 295.65 K): 0.00584
- solubility (mole fraction) (in acetonitrile, 298.15 K): 0.00618
- solubility (mole fraction) (in acetonitrile, 303.15 K): 0.00679
- solubility (mole fraction) (in acetonitrile, 305.65 K): 0.00709
- solubility (mole fraction) (in acetonitrile, 308.15 K): 0.00749
- solubility (mole fraction) (in acetonitrile, 313.15 K): 0.00822
- solubility (mole fraction) (in acetonitrile, 315.65 K): 0.00858
- solubility (mole fraction) (in acetonitrile, 318.15 K): 0.00894
- solubility (mole fraction) (in acetonitrile, 323.15 K): 0.00976
- solubility (mole fraction) (in benzyl alcohol, 273.15 K): 0.0134
- solubility (mole fraction) (in benzyl alcohol, 275.65 K): 0.0143
- solubility (mole fraction) (in benzyl alcohol, 278.15 K): 0.0154
- solubility (mole fraction) (in benzyl alcohol, 283.15 K): 0.0175
- solubility (mole fraction) (in benzyl alcohol, 285.65 K): 0.0188
- solubility (mole fraction) (in benzyl alcohol, 288.15 K): 0.0202
- solubility (mole fraction) (in benzyl alcohol, 293.15 K): 0.023
- solubility (mole fraction) (in benzyl alcohol, 295.65 K): 0.0245
- solubility (mole fraction) (in benzyl alcohol, 298.15 K): 0.0261
- solubility (mole fraction) (in benzyl alcohol, 303.15 K): 0.0294
- solubility (mole fraction) (in benzyl alcohol, 305.65 K): 0.0312
- solubility (mole fraction) (in benzyl alcohol, 308.15 K): 0.0331
- solubility (mole fraction) (in benzyl alcohol, 313.15 K): 0.0372
- solubility (mole fraction) (in benzyl alcohol, 315.65 K): 0.0393
- solubility (mole fraction) (in benzyl alcohol, 318.15 K): 0.0417
- solubility (mole fraction) (in benzyl alcohol, 323.15 K): 0.0466
- solubility (mole fraction) (in chloroform, 273.15 K): 0.000535
- solubility (mole fraction) (in chloroform, 275.65 K): 0.000577
- solubility (mole fraction) (in chloroform, 278.15 K): 0.000625
- solubility (mole fraction) (in chloroform, 283.15 K): 0.000722
- solubility (mole fraction) (in chloroform, 285.65 K): 0.000775
- solubility (mole fraction) (in chloroform, 288.15 K): 0.000837
- solubility (mole fraction) (in chloroform, 293.15 K): 0.000959
- solubility (mole fraction) (in chloroform, 295.65 K): 0.00102
- solubility (mole fraction) (in chloroform, 298.15 K): 0.00109
- solubility (mole fraction) (in chloroform, 303.15 K): 0.00124
- solubility (mole fraction) (in chloroform, 305.65 K): 0.00131
- solubility (mole fraction) (in chloroform, 308.15 K): 0.0014
- solubility (mole fraction) (in chloroform, 313.15 K): 0.0016
- solubility (mole fraction) (in chloroform, 315.65 K): 0.00169
- solubility (mole fraction) (in chloroform, 318.15 K): 0.00178
- solubility (mole fraction) (in chloroform, 323.15 K): 0.00201
- solubility (mole fraction) (in cyclohexanone, 273.15 K): 0.0295
- solubility (mole fraction) (in cyclohexanone, 275.65 K): 0.0307
- solubility (mole fraction) (in cyclohexanone, 278.15 K): 0.0321
- solubility (mole fraction) (in cyclohexanone, 283.15 K): 0.0352
- solubility (mole fraction) (in cyclohexanone, 285.65 K): 0.0367
- solubility (mole fraction) (in cyclohexanone, 288.15 K): 0.0387
- solubility (mole fraction) (in cyclohexanone, 293.15 K): 0.0422
- solubility (mole fraction) (in cyclohexanone, 295.65 K): 0.044
- solubility (mole fraction) (in cyclohexanone, 298.15 K): 0.0461
- solubility (mole fraction) (in cyclohexanone, 303.15 K): 0.0506
- solubility (mole fraction) (in cyclohexanone, 305.65 K): 0.0527
- solubility (mole fraction) (in cyclohexanone, 308.15 K): 0.0552
- solubility (mole fraction) (in cyclohexanone, 313.15 K): 0.0604
- solubility (mole fraction) (in cyclohexanone, 315.65 K): 0.0629
- solubility (mole fraction) (in cyclohexanone, 318.15 K): 0.0655
- solubility (mole fraction) (in cyclohexanone, 323.15 K): 0.0708
- solubility (mole fraction) (in ethanol, 273.15 K): 0.000713
- solubility (mole fraction) (in ethanol, 275.65 K): 0.000799
- solubility (mole fraction) (in ethanol, 278.15 K): 0.000897
- solubility (mole fraction) (in ethanol, 283.15 K): 0.00112
- solubility (mole fraction) (in ethanol, 285.65 K): 0.00123
- solubility (mole fraction) (in ethanol, 288.15 K): 0.00137
- solubility (mole fraction) (in ethanol, 293.15 K): 0.00166
- solubility (mole fraction) (in ethanol, 295.65 K): 0.00183
- solubility (mole fraction) (in ethanol, 298.15 K): 0.00201
- solubility (mole fraction) (in ethanol, 303.15 K): 0.00244
- solubility (mole fraction) (in ethanol, 305.65 K): 0.00265
- solubility (mole fraction) (in ethanol, 308.15 K): 0.00288
- solubility (mole fraction) (in ethanol, 313.15 K): 0.00347
- solubility (mole fraction) (in ethanol, 315.65 K): 0.00378
- solubility (mole fraction) (in ethanol, 318.15 K): 0.00405
- solubility (mole fraction) (in ethanol, 323.15 K): 0.00479
- solubility (mole fraction) (in ethyl acetate, 273.15 K): 0.00919
- solubility (mole fraction) (in ethyl acetate, 275.65 K): 0.00981
- solubility (mole fraction) (in ethyl acetate, 278.15 K): 0.0104
- solubility (mole fraction) (in ethyl acetate, 283.15 K): 0.0117
- solubility (mole fraction) (in ethyl acetate, 285.65 K): 0.0123
- solubility (mole fraction) (in ethyl acetate, 288.15 K): 0.0131
- solubility (mole fraction) (in ethyl acetate, 293.15 K): 0.0146
- solubility (mole fraction) (in ethyl acetate, 295.65 K): 0.0155
- solubility (mole fraction) (in ethyl acetate, 298.15 K): 0.0163
- solubility (mole fraction) (in ethyl acetate, 303.15 K): 0.0181
- solubility (mole fraction) (in ethyl acetate, 305.65 K): 0.019
- solubility (mole fraction) (in ethyl acetate, 308.15 K): 0.02
- solubility (mole fraction) (in ethyl acetate, 313.15 K): 0.022
- solubility (mole fraction) (in ethyl acetate, 315.65 K): 0.0231
- solubility (mole fraction) (in ethyl acetate, 318.15 K): 0.0243
- solubility (mole fraction) (in ethyl acetate, 323.15 K): 0.0266
- solubility (mole fraction) (in isopropanol, 273.15 K): 0.000586
- solubility (mole fraction) (in isopropanol, 275.65 K): 0.000643
- solubility (mole fraction) (in isopropanol, 278.15 K): 0.000741
- solubility (mole fraction) (in isopropanol, 283.15 K): 0.000937
- solubility (mole fraction) (in isopropanol, 285.65 K): 0.00104
- solubility (mole fraction) (in isopropanol, 288.15 K): 0.00115
- solubility (mole fraction) (in isopropanol, 293.15 K): 0.00143
- solubility (mole fraction) (in isopropanol, 295.65 K): 0.00159
- solubility (mole fraction) (in isopropanol, 298.15 K): 0.00175
- solubility (mole fraction) (in isopropanol, 303.15 K): 0.00214
- solubility (mole fraction) (in isopropanol, 305.65 K): 0.00234
- solubility (mole fraction) (in isopropanol, 308.15 K): 0.00257
- solubility (mole fraction) (in isopropanol, 313.15 K): 0.00311
- solubility (mole fraction) (in isopropanol, 315.65 K): 0.0034
- solubility (mole fraction) (in isopropanol, 318.15 K): 0.0037
- solubility (mole fraction) (in isopropanol, 323.15 K): 0.00443
- solubility (mole fraction) (in methanol, 273.15 K): 0.0014
- solubility (mole fraction) (in methanol, 275.65 K): 0.00151
- solubility (mole fraction) (in methanol, 278.15 K): 0.00167
- solubility (mole fraction) (in methanol, 283.15 K): 0.00196
- solubility (mole fraction) (in methanol, 285.65 K): 0.00212
- solubility (mole fraction) (in methanol, 288.15 K): 0.00233
- solubility (mole fraction) (in methanol, 293.15 K): 0.00272
- solubility (mole fraction) (in methanol, 295.65 K): 0.00295
- solubility (mole fraction) (in methanol, 298.15 K): 0.00318
- solubility (mole fraction) (in methanol, 303.15 K): 0.00372
- solubility (mole fraction) (in methanol, 305.65 K): 0.00397
- solubility (mole fraction) (in methanol, 308.15 K): 0.00427
- solubility (mole fraction) (in methanol, 313.15 K): 0.00493
- solubility (mole fraction) (in methanol, 315.65 K): 0.00527
- solubility (mole fraction) (in methanol, 318.15 K): 0.00566
- solubility (mole fraction) (in methanol, 323.15 K): 0.00646

— BigSolDB 2.1
